Data as given in patent publication US6620793B2, “Therapeutic use of ganglioside GM1 in the treatment of spinal cord injury” (Fidia Farmaceutici S.p.A., priority 1991, dated 2003).
Where “and” joins values, the source holds several entries; their conditions need not be identical. Identical values can stand only once.

Key:
[1] = tested on: patients with spinal cord injury; assay: Randomized placebo-controlled double-blind spinal cord injury GM1 trial: Frankel grade; format: in vivo, humans
Description: The first clinical scale used, that is the Frankel classification system, is extremely important because it provides a very relevant clinical index of neurological improvement of the patients.
More precisely, the Frankel classification system separates neurologic disability into five ordinal grades, according to the type and completeness of neurologic function remaining below the level of the spinal-cord injury, as follows: grad A, complete neurclogic injury; grade B, only sensation preserved; grade C, nonfunctional motor ability preserved; grade D, functional motor ability preserved; and grade E, normal motor function. The letters designating each grade were used by Frankel in his original description of this scale.

[2] = Solubility of purified GM1 sodium salt; format: physicochemical
Description: The compound obtained after this purification has the following chemical characteristics and specifications:
Soluble in water, methanol-water and methanol-chloroform.

[3] = tested on: patients with spinal cord injury; assay: Randomized placebo-controlled double-blind spinal cord injury GM1 trial: ASIA motor score
Description: This study was designed as a pilot study to test whether the neurologic recovery in humans after a spinal-cord injury could be altered by adding monosialbtetrahexosylganglioside (GM1) ganglioside beyond the routine medical and surgical care with which these trauma patients are initially treated.
A prospective, randomized, placebo-controlled, double-blinded spinal cord injury GM1 ganglioside drug trial was completed. Of the 37 patients, 34 patients (23 cervical and 11 thoracic injuries) who were randomly assigned to a treatment group and who followed the test drug protocol and completed the one year follow-up period, 16 patients were included in the GM1 group and 18 were in the placebo group.
The first dose of study drug was administered within 72 hours of the injury and then 17 to 29 additional 5 ml daily injections of 100 mg GM1 or placebo were given. The treatment (100 mg of GM1 sodium salt or placebo) was administered duly by the intravenous route for a total of 18-32 doses, with the first dose taken within 72 hours of the injury.
The complete composition of the GM1 ganglioside used in the study (Sygen, Fidia, Abano Terme, Italy) is 100 mg of GM1 sodium salt, 12.7 mM; 1.25 mg of sodium dihydrogen phosphate dihydrate, 1.6 mM; 15.0 mg of disodium hydrogen phosphate dodecahydrate, 8.4 mM; 40.0 mg of sodium chloride, 137.9 nM; and a quantity of water sufficient to yield an isotonic solution with a total volume of 5 ml for injection. The placebo vials were identical in appearance and composition, except that the GM1 was absent. Most of the test drug was administered by injection through an intravenous heparin lock. Some of the first few injections were given by an intravenous catheter, and occasionally, when the heparin lock was nonfunctional, a single direct-puncture intravenous injection was used.
The severity of spinal-cord injury and its subsequent recovery were quantified by serial measurement with both the Frankel scale and the American Spinal Injury Association (ASIA) motor score. Each measurement was made at the time of the first contact in the emergency room, at entry into the study, then twice per week for the first 4 weeks and after 2, 3, 6 and 12 months.
The second clinical scale used, that is the ASIA motor score, provides a quantifiable index of nerve-muscle functionality. More exactly, this scale has a range of 0 (complete quadriplegia) to 100 (normal motor function). Five key muscles in each extremity (the biceps, wrist extensors, triceps, flexor profundus, and hand intrinsics in the upper extremity, and the iliopsoas, quadriceps, tibialis anterior, extensor hallucis longus, and gastrocnemius in the lower extremity) are assessed on a scale for strength from 0 to 5 points in which 0 (absent) denotes total paralysis, 1 (trace) palpable or visible penetration, 2(poor) active movement through a range of motion in which gravity is not involved, 3 (fair) active movement through a range of motion against gravity, 4 (good) active movement through a range of motion against resistance, and 5 normal. The ASIA motor score is the sum of the scores for muscle strength in these 20 motor groups.
Furthermore, to better analyze the GM1 effect on muscular functionality, the 20 individual muscle groups in each patient were subdivided into three categories at entry: those initially paralyzed (a motor score of 0), those initially paretic (a motor score of 1 through 4), and those functioning normally (a motor score of 5).

CCCCCCCCCCCCCC=CC(O)C(COC1OC(CO)C(OC2OC(CO)C(OC3OC(CO)C(O)C(OC4OC(CO)C(O)C(O)C4O)C3NC(C)=O)C(OC3(C(=O)[O-])CC(O)C(NC(C)=O)C(C(O)C(O)CO)O3)C2O)C(O)C1O)NC(=O)CCCCCCCCCCCCCCCCC.[Na+] (stereo not drawn) [GM1, Monosialotetrahexosylganglioside, sodium salt]
Patients improved by two or more Frankel grades who were in the GM1 group ([1]; after one year, 100 mg GM1 i.v. daily, 18-32 doses, 8 of 34 patients improved overall): seven of eight | Improvement with respect to Frankel grade versus placebo ([1]; entry to one year, P=0.034 Cochran-Mantel-Haenszel chi-square test): improved more than the placebo-treated patients | Patients improved by two or more Frankel grades among those who had room to improve (number) ([1]; one year, placebo 1 of 14, P=0.033 Fisher's exact test, two-tailed): 7 of 14 | Patients improved by two or more Frankel grades among those who had room to improve (percent) ([1]; one year, placebo 7.1 percent, P=0.033 Fisher's exact test): 50% | Solubility ([2]; in methanol, acetone, chloroform, ether and hexane): Virtually insoluble | Solubility ([2]; in water, methanol-water and methanol-chloroform): Soluble | Difference in improvement in ASIA motor score between groups, unadjusted ([3]; GM1 versus placebo, one year, mean ± SD, n=34, sodium salt): 15.3 and 15.3 ± 25.6 | Improvement in mean ASIA motor score ([3]; all patients, entry to one-year follow-up, mean ± SD, n=16): 36.9 ± 28.2 | Mean ASIA motor score at follow-up ([3]; all patients, one-year follow-up, mean ± SD, n=16): 62.8 ± 26.8 | Mean ASIA motor score at entry ([3]; all patients, study entry (baseline), mean ± SD, n=16, sodium salt): 25.9 and 25.9 ± 21.8 | Patients with a greater degree of ASIA motor recovery than any patient assigned to placebo ([3]; entry to one-year follow-up): three | Patients with motor recoveries of more than 20 points in ASIA motor score (number) ([3]; entry to one-year follow-up, placebo 7 of 18): 11 of 16 | Patients with motor recoveries of more than 20 points in ASIA motor score (percent) ([3]; entry to one-year follow-up, placebo 38.9 percent): 68.8% | Patients with no recovery in ASIA motor score ([3]; entry to one-year follow-up, placebo six patients): one | Mean motor recovery in ASIA motor score ([3]; entry to score after one year, 95 percent CI 21.9 to 51.9): 36.9 points | Muscle groups paralyzed at entry that regained useful-to-normal motor function (percent) ([3]; motor score 0 at entry to 3 to 5 after one year, placebo 25.3 percent): 51.7% | Muscle groups paralyzed at entry that regained useful-to-normal motor function (number) ([3]; motor score 0 at entry to 3 to 5 after one year, placebo 49 of 194): 107 of 207 | Muscle groups paralyzed at entry that remained paralyzed (percent) ([3]; motor score 0 at entry, after one year, placebo 65.5 percent): 30.9% | Muscle groups paralyzed at entry that remained paralyzed (number) ([3]; motor score 0 at entry, after one year, placebo 127 of 194): 64 of 207 | Patients with at least one muscle group paralyzed at entry that improved to a motor score of 3 or more (number) ([3]; one-year follow-up, post hoc, placebo 8 of 18, P=0.039 Fisher's exact test): 13 of 16 | Patients with at least one muscle group paralyzed at entry that improved to a motor score of 3 or more (percent) ([3]; one-year follow-up, post hoc, placebo 44.4 percent, P=0.039 Fisher's exact test): 81.3%
